Data reported in patent publication US11554171B2, “Compounds and methods for the targeted degradation of bromodomain-containing proteins” (Arvinas Operations, Inc., priority 2015, dated 2023).

Test system: c-myc in 22RV-1 cells
Test: Human c-myc ELISA assay
Type: cell-based
Settings: Homo sapiens; for Emax: 22Rv1, 18 h, read-out: Degradation of BRD4: Maximum inhibition (%) c-Myc ELISA in 22RV1 cells; for DC50: 22Rv1, read-out: Degradation of BRD4: DC50 (uM) c-Myc ELISA in 22RV1 cells
In short: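 22RV-1 cells treated 18 h with 8-point 1:3 compound dilutions (final top 300 nM or 1 μM, 0.1% DMSO). Cells lysed in RIPA buffer with protease/phosphatase inhibitors, and c-myc protein in cleared lysate quantified by ELISA against a standard curve. DC50 reported for c-myc suppression.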

Row | SMILES | Emax [%] | DC50 [µM]
1 | Cc1ncsc1-c1ccc(CNC(=O)[C@@H]2C[C@@H](O)CN2C(=O)[C@H](c2cc(OCCC(F)(F)CCNC(=O)C[C@@H]3N=C(c4ccc(Cl)cc4)c4c(sc(C)c4C)-n4c(C)nnc43)no2)C(C)C)cc1 [Example 296, (2S,4R)-1-[(2S)-2-{3-[(5-{2-[(9S)-7-(4-chlorophenyl)-4,5,13-trimethyl-3-thia-1,8,11,12-tetraazatricyclo[8.3.0.0^2,^6]trideca-2(6),4,7,10,12-pentaen-9-yl]acetamido}-3,3-difluoropentyl)oxy]-1,2-oxazol-5-yl}-3-methylbutanoyl]-4-hydroxy-N-{[4-(4-methyl-1,3-thiazol-5-yl)phenyl]methyl}pyrrolidine-2-carboxamide] | 71.4 | 0.1 to 1
2 | Cc1ncsc1-c1ccc(CNC(=O)[C@@H]2C[C@@H](O)CN2C(=O)[C@H](C(C)C)n2cc(-c3cccc(O[C@H]4C[C@H](NC(=O)C[C@@H]5N=C(c6ccc(Cl)cc6)c6c(sc(C)c6C)-n6c(C)nnc65)C4)c3)cn2)cc1 [Example 217] | 91.9 | 0.01 to 0.1
3 | Cc1ncsc1-c1ccc([C@H](C)NC(=O)[C@@H]2C[C@@H](O)CN2C(=O)C(C(C)C)n2cc(-c3cc(F)cc(O[C@H](C)CNC(=O)C[C@@H]4N=C(c5ccc(Cl)cc5)c5c(sc(C)c5C)-n5c(C)nnc54)c3)cn2)cc1 (stereo partly drawn) [Example 213] | 94.3 | 0.01 to 0.1
4 | Cc1ncsc1-c1ccc([C@H](C)NC(=O)[C@@H]2C[C@@H](O)CN2C(=O)[C@@H](NC(=O)CN2CCC(N3C[C@@H]4C[C@H]3CN4C(=O)C[C@@H]3N=C(c4ccc(Cl)cc4)c4c(sc(C)c4C)-n4c(C)nnc43)CC2)C(C)(C)C)cc1 [Example 368, (2S,4R)-1-[(2S)-2-(2-{4-[(1S,4S)-5-{2-[(9S)-7-(4-chlorophenyl)-4,5,13-trimethyl-3-thia-1,8,11,12-tetraazatricyclo[8.3.0.0^2,6]trideca-2(6),4,7,10,12-pentaen-9-yl]acetyl}-2,5-diazabicyclo[2.2.1]heptan-2-yl]piperidin-1-yl}acetamido)-3,3-dimethylbutanoyl]-4-hydroxy-N-[(1S)-1-[4-(4-methyl-1,3-thiazol-5-yl)phenyl]ethyl]pyrrolidine-2-carboxamide] | 100 | 0.01 to 0.1
5 | Cc1ncsc1-c1ccc(CNC(=O)[C@@H]2C[C@@H](O)CN2C(=O)[C@@H](NC(=O)COCCc2cccc(CNC(=O)C[C@@H]3N=C(c4ccc(Cl)cc4)c4c(sc(C)c4C)-n4c(C)nnc43)c2)C(C)(C)C)cc1 [Example 69] | 93.4 | 0.01 to 0.1
6 | Cc1ncsc1-c1ccc([C@H](C)NC(=O)[C@@H]2C[C@@H](O)CN2C(=O)[C@@H](NC(=O)CN2CCC(C(=O)N3CCN(C(=O)C[C@@H]4N=C(c5ccc(Cl)cc5)c5c(sc(C)c5C)-n5c(C)nnc54)CC3)CC2)C(C)(C)C)cc1 [Example 334] | 97 | < 0.01
7 | Cc1ncsc1-c1ccc(CNC(=O)[C@@H]2C[C@@H](O)CN2C(=O)[C@@H](NC(=O)COCCCOCC#Cc2ccc([C@H](C)NC(=O)C[C@@H]3N=C(c4ccc(Cl)cc4)c4c(sc(C)c4C)-n4c(C)nnc43)cc2)C(C)(C)C)cc1 [Example 40] | 97.5 | 0.01 to 0.1
8 | Cc1ncsc1-c1ccc(CNC(=O)[C@@H]2C[C@@H](O)CN2C(=O)[C@@H](NC(=O)COCCCOCCCNC(=O)C[C@@H]2N=C(c3ccc(Cl)cc3)c3c(sc(C)c3C)-n3c(C)nnc32)C(C)(C)C)cc1 [Example 46] | 100 | 0.01 to 0.1
9 | Cc1ncsc1-c1ccc(CNC(=O)[C@@H]2C[C@@H](O)CN2C(=O)[C@@H](NC(=O)COCCCNC(=O)C[C@@H]2N=C(c3ccc(Cl)cc3)c3c(sc(C)c3C)-n3c(C)nnc32)C(C)(C)C)cc1 [Example 44] | 98 | 0.1 to 1
10 | Cc1ncsc1-c1ccc(CNC(=O)[C@@H]2C[C@@H](O)CN2C(=O)[C@@H](NC(=O)COCCCOCCCOc2ccc(C(C)(C)NC(=O)C[C@@H]3N=C(c4ccc(Cl)cc4)c4c(sc(C)c4C)-n4c(C)nnc43)cc2)C(C)(C)C)cc1 [Example 37] | 96 | 0.01 to 0.1
11 | Cc1ncsc1-c1ccc(CNC(=O)[C@@H]2C[C@@H](O)CN2C(=O)[C@@H](NC(=O)COCCCOc2ccc([C@@H](C)NC(=O)C[C@@H]3N=C(c4ccc(Cl)cc4)c4c(sc(C)c4C)-n4c(C)nnc43)cc2)C(C)(C)C)cc1 [Example 65] | 95.4 | 0.01 to 0.1
12 | Cc1sc2c(c1C)C(c1ccc(Cl)cc1)=N[C@@H](CC(=O)N[C@H]1C[C@H](Oc3ccc(CC(=O)N[C@H](C(=O)N4C[C@H](O)C[C@H]4C(=O)N[C@@H](C)c4ccc(-c5cnnn5C)cc4)C(C)(C)C)cc3)C1)c1nnc(C)n1-2 [Example 250] | 16.1 | > 1
13 | Cc1ncoc1-c1ccc([C@H](C)NC(=O)[C@@H]2C[C@@H](O)CN2C(=O)[C@H](C(C)C)n2cc(-c3ccnc(O[C@H]4C[C@@H](NC(=O)C[C@@H]5N=C(c6ccc(Cl)cc6)c6c(sc(C)c6C)-n6c(C)nnc65)C4)c3)cn2)cc1 [Example 277] | 94 | 0.01 to 0.1
14 | Cc1ncsc1-c1ccc(CNC(=O)[C@@H]2C[C@@H](O)CN2C(=O)[C@@H](NC(=O)COc2ccc(O[C@H]3C[C@@H](NC(=O)C[C@@H]4N=C(c5ccc(Cl)cc5)c5c(sc(C)c5C)-n5c(C)nnc54)C3)nc2)C(C)(C)C)cc1 [Example 118] | 94.4 | < 0.01
15 | Cc1ncsc1-c1ccc([C@H](C)NC(=O)[C@@H]2C[C@@H](O)CN2C(=O)[C@@H](NC(=O)/C=C/c2ccc(F)c(O[C@@H](C)CNC(=O)C[C@@H]3N=C(c4ccc(Cl)cc4)c4c(sc(C)c4C)-n4c(C)nnc43)c2)C(C)(C)C)cc1 [Example 160] | 94.5 | < 0.01
16 | Cc1ncsc1-c1ccc([C@H](C)NC(=O)[C@@H]2C[C@@H](O)CN2C(=O)[C@@H](NC(=O)[C@@H](C)OCCCOCCNC(=O)C[C@@H]2N=C(c3ccc(Cl)cc3)c3c(sc(C)c3C)-n3c(C)nnc32)C(C)(C)C)cc1 [Example 154] | 94.5 | < 0.01
17 | Cc1ncsc1-c1ccc([C@H](C)NC(=O)[C@@H]2C[C@@H](O)CN2C(=O)[C@@H](NC(=O)c2cc3cc(O[C@H](C)CNC(=O)C[C@@H]4N=C(c5ccc(Cl)cc5)c5c(sc(C)c5C)-n5c(C)nnc54)ccc3o2)C(C)(C)C)cc1 [Example 206, (2S,4R)-1-[(2S)-2-[(5-{[(2R)-1-{2-[(9S)-7-(4-chlorophenyl)-4,5,13-trimethyl-3-thia-1,8,11,12-tetraazatricyclo[8.3.0.0^2,^6]trideca-2(6),4,7,10,12-pentaen-9-yl]acetamido}propan-2-yl]oxy}-1-benzofuran-2-yl)formamido]-3,3-dimethylbutanoyl]-4-hydroxy-N-[(1S)-1-[4-(4-methyl-1,3-thiazol-5-yl)phenyl]ethyl]pyrrolidine-2-carboxamide] | 90 | < 0.01
18 | Cc1ncsc1-c1ccc(CNC(=O)[C@@H]2C[C@@H](O)CN2C(=O)[C@@H](NC(=O)COCCCOCCCOc2ccc(NC(=O)C[C@@H]3N=C(c4ccc(Cl)cc4)c4c(sc(C)c4C)-n4c(C(C)C)nnc43)cc2)C(C)(C)C)cc1 [Example 54] | 63 | > 1
19 | Cc1ncsc1-c1ccc(CNC(=O)[C@@H]2C[C@@H](O)CN2C(=O)[C@@H](C(C)C)n2cc(-c3cccc(O[C@H](C)CNC(=O)C[C@@H]4N=C(c5ccc(Cl)cc5)c5c(sc(C)c5C)-n5c(C)nnc54)c3)cn2)cc1 [Example 231] | 39.5 | > 1
20 | C=Cc1ccc(C2=N[C@@H](CC(=O)Nc3ccc(OCCCOCCCOCC(=O)N[C@H](C(=O)N4C[C@H](O)C[C@H]4C(=O)NCc4ccc(-c5scnc5C)cc4)C(C)(C)C)cc3)c3nnc(C)n3-c3sc(C)c(C)c32)cc1 [Example 63] | 98.5 | 0.01 to 0.1
21 | Cc1ncsc1-c1ccc([C@H](C)NC(=O)[C@@H]2C[C@@H](O)CN2C(=O)[C@@H](NC(=O)CCc2cc(OC(C)CNC(=O)C[C@@H]3N=C(c4ccc(Cl)cc4)c4c(sc(C)c4C)-n4c(C)nnc43)ccc2F)C(C)(C)C)cc1 (stereo partly drawn) [Example 151] | 96 | < 0.01
22 | Cc1ncsc1-c1ccc([C@H](C)NC(=O)[C@@H]2C[C@@H](O)CN2C(=O)[C@H](C(C)C)n2cc(-c3cccc(O[C@H]4C[C@@H](NC(=O)C[C@@H]5N=C(c6ccc(Cl)cc6)c6c(sc(C)c6C)-n6c(C)nnc65)C4)c3)cn2)cc1 [Example 243] | 95.5 | < 0.01
23 | Cc1ncsc1-c1ccc(CNC(=O)[C@@H]2C[C@@H](O)CN2C(=O)[C@@H](NC(=O)COCCN2CCC(NC(=O)C[C@@H]3N=C(c4ccc(Cl)cc4)c4c(sc(C)c4C)-n4c(C)nnc43)CC2)C(C)(C)C)cc1 [Example 79] | 50.8 | > 1
24 | Cc1ncsc1-c1ccc([C@H](C)NC(=O)[C@@H]2C[C@@H](O)CN2C(=O)[C@@H](NC(=O)CCc2cc(F)cc(O[C@H]3C[C@@H](NC(=O)C[C@@H]4N=C(c5ccc(Cl)cc5)c5c(sc(C)c5C)-n5c(C)nnc54)C3)c2)C(C)(C)C)cc1 [Example 183, (2S,4R)-1-[(2S)-2-(3-{3-fluoro-5-[(1,3-cis)-3-{2-[(9S)-7-(4-chlorophenyl)-4,5,13-trimethyl-3-thia-1,8,11,12-tetraazatricyclo[8.3.0.0^2,^6]trideca-2(6),4,7,10,12-pentaen-9-yl]acetamido}cyclobutoxy]phenyl}propanamido)-3,3-dimethylbutanoyl]-4-hydroxy-N-[(1S)-1-[4-(4-methyl-1,3-thiazol-5-yl)phenyl]ethyl]pyrrolidine-2-carboxamide] | 99 | < 0.01
